Target: Adenosine receptor A2a (Rattus norvegicus, UniProt P30543)
Assay: Displacement of [3H]ZM241385 from adenosine A2A receptor in rat brain membrane
Assay type: cell membranes

Chain of Adenosine receptor A2a (P30543 whole entry): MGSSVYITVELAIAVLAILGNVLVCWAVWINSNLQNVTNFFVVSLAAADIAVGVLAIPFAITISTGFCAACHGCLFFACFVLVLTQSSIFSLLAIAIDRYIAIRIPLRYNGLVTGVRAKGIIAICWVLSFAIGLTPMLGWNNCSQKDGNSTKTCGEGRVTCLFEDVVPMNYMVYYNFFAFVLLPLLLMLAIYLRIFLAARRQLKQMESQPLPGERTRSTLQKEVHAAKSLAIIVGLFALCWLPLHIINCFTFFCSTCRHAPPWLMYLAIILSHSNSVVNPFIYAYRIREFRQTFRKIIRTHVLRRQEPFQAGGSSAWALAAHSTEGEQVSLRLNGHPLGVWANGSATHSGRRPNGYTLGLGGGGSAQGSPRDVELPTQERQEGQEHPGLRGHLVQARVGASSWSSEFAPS

| SMILES | Ki |
| --- | --- |
| Nc1nc(N2CCN3CCC[C@H]3C2)cc2nc(-c3ccco3)nn12 | 110 nM (antagonist) |
| Nc1nc(NC[C@@H]2CC[C@@H]3CN(Cc4ccc(F)cc4F)CCN3C2)cc2nc(-c3ccco3)nn12 | 230 nM (antagonist) |
| Nc1nc(N2CCN3C[C@@H](CNCc4ccc(F)cc4F)CC[C@H]3C2)nc2nc(-c3ccco3)nn12 | 2 nM (antagonist) |
| Nc1cc(N2CCN3CCC[C@H]3C2)nc2nc(-c3ccco3)nn12 | 170 nM (antagonist) |
| Nc1nc(N2CCN3C[C@@H](CNc4ncccn4)CC[C@H]3C2)cc2nc(-c3ccco3)nn12 | 47 nM (antagonist) |
| Nc1nc(N2CCN3C[C@H](COc4ccc5ccccc5n4)CC[C@H]3C2)nc2nc(-c3ccco3)nn12 | 7 nM (antagonist) |
| Nc1nc(N2CCN3C[C@@H](CN(Cc4ccccn4)Cc4ccccn4)CC[C@H]3C2)nc2nc(-c3ccco3)nn12 | 9 nM (antagonist) |
| Nc1nc(N2CCNCC2)nc2nc(-c3ccco3)nn12 | > 5000 nM |
| Nc1nc(N2CCN3CCC[C@@H]3C2)cc2nc(-c3ccco3)nn12 | 63 nM (antagonist) |
| NC[C@H]1CC[C@H]2CN(c3cc4nc(-c5ccco5)nn4c(N)n3)CCN2C1 | 56 nM (antagonist) |
| Nc1nc(N2CCN3C[C@H](COc4cccc(F)c4)CC[C@H]3C2)nc2nc(-c3ccco3)nn12 (mixture of isomers) | 53 nM (antagonist) |
| Nc1cc(N2CCN3[C@@H](COc4ccc5[nH]ccc5c4)CCC[C@H]3C2)nc2nc(-c3ccco3)nn12 (racemic) | 76 nM (antagonist) |
| Nc1nc(N2CCN3C[C@@H](Cn4cncn4)CC[C@H]3C2)nc2nc(-c3ccco3)nn12 (racemic) | 4 nM (antagonist) |
| Nc1nc(N2CCN3C[C@@H](CN(Cc4ccncc4)Cc4ccncc4)CC[C@H]3C2)nc2nc(-c3ccco3)nn12 (racemic) | 3 nM (antagonist) |
| Nc1nc(N2CCN3C[C@H](COc4ccncc4)CC[C@H]3C2)nc2nc(-c3ccco3)nn12 (racemic) | 81 nM (antagonist) |
| Nc1cc(N2CCN3[C@@H](COc4ccc5cccnc5c4)CCC[C@H]3C2)nc2nc(-c3ccco3)nn12 (racemic) | 830 nM (antagonist) |

Now from value to compound:

| Ki | SMILES |
| --- | --- |
| 45 nM (antagonist) | Nc1nc(N2CCN3C[C@H](CNc4ncccn4)CC[C@H]3C2)nc2nc(-c3ccco3)nn12 |
| 47 nM (antagonist) | Nc1nc(N2CCN3C[C@@H](CN(Cc4ccco4)Cc4ccco4)CC[C@H]3C2)nc2nc(-c3ccco3)nn12 |
| 4 nM (antagonist) | Nc1nc(N2CCN3C[C@H](CN(Cc4cccnc4)Cc4cccnc4)CC[C@H]3C2)nc2nc(-c3ccco3)nn12 |
| 2 nM (antagonist) | NC[C@@H]1CC[C@H]2CN(c3nc(N)n4nc(-c5ccco5)nc4n3)CCN2C1 |
| > 500 nM | Nc1nc(N2CCN3C[C@@H](CN(Cc4ccc(F)cc4F)Cc4ccc(F)cc4F)CC[C@H]3C2)nc2nc(-c3ccco3)nn12 |
| 490 nM (antagonist) | Nc1nc(N2C[C@@H]3CCCN3C[C@@H]2Cc2ccccc2)nc2nc(-c3ccco3)nn12 |
| 2 nM (antagonist) | Nc1nc(N2CCN3C[C@@H](CN(Cc4cccnc4)Cc4cccnc4)CC[C@H]3C2)nc2nc(-c3ccco3)nn12 |
| 180 nM (antagonist) | Cc1nn(C)c(Cl)c1CN(Cc1c(C)nn(C)c1Cl)C[C@H]1CC[C@H]2CN(c3nc(N)n4nc(-c5ccco5)nc4n3)CCN2C1 |
| 370 nM (antagonist) | NC[C@@H]1CC[C@H]2CN(c3cc(N)n4nc(-c5ccco5)nc4n3)CCN2C1 |
| 110 nM (antagonist) | NC[C@H]1CC[C@H]2CN(c3cc(N)n4nc(-c5ccco5)nc4n3)CCN2C1 |
| 51 nM (antagonist) | Nc1nc(N2CCN3C[C@@H](CNCc4cccnc4)CC[C@H]3C2)nc2nc(-c3ccco3)nn12 |
| 30 nM (antagonist) | Cc1nn(C)c(Cl)c1CNC[C@H]1CC[C@H]2CN(c3nc(N)n4nc(-c5ccco5)nc4n3)CCN2C1 |

Target: T1, Adenosine receptor A1 (Rattus norvegicus, UniProt P25099)
T1 sequence (P25099 whole entry): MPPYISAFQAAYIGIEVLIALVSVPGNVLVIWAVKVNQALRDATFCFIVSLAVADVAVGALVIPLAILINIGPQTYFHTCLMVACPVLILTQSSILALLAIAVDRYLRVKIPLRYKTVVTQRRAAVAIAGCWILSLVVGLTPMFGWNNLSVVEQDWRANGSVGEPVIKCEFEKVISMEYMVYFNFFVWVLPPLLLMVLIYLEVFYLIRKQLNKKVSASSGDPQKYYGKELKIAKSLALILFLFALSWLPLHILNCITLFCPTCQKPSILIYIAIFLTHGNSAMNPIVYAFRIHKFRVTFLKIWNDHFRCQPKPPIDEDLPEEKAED
Assay: Displacement of [3h]DPCPX from adenosine A receptor in rat cerebral cortex membrane

| SMILES | Ki |
| --- | --- |
| Nc1nc(N2CCN3CCC[C@H]3C2)cc2nc(-c3ccco3)nn12 | > 500 nM |
| Nc1nc(NC[C@@H]2CC[C@@H]3CN(Cc4ccc(F)cc4F)CCN3C2)cc2nc(-c3ccco3)nn12 | > 1000 nM |
| Nc1nc(N2CCN3C[C@@H](CNCc4ccc(F)cc4F)CC[C@H]3C2)nc2nc(-c3ccco3)nn12 | 1100 nM |
| Nc1cc(N2CCN3CCC[C@H]3C2)nc2nc(-c3ccco3)nn12 | > 500 nM |
| Nc1nc(N2CCN3C[C@@H](CNc4ncccn4)CC[C@H]3C2)cc2nc(-c3ccco3)nn12 | > 1000 nM |
| Nc1nc(N2CCN3C[C@H](COc4ccc5ccccc5n4)CC[C@H]3C2)nc2nc(-c3ccco3)nn12 | > 1000 nM |
| Nc1nc(N2CCN3C[C@@H](CN(Cc4ccccn4)Cc4ccccn4)CC[C@H]3C2)nc2nc(-c3ccco3)nn12 | > 500 nM |
| Nc1nc(N2CCN3CCC[C@@H]3C2)cc2nc(-c3ccco3)nn12 | 1100 nM |
| NC[C@H]1CC[C@H]2CN(c3cc4nc(-c5ccco5)nn4c(N)n3)CCN2C1 | > 500 nM |
| Nc1nc(N2CCN3C[C@H](COc4cccc(F)c4)CC[C@H]3C2)nc2nc(-c3ccco3)nn12 (mixture of isomers) | 960 nM (antagonist) |
| Nc1cc(N2CCN3[C@@H](COc4ccc5[nH]ccc5c4)CCC[C@H]3C2)nc2nc(-c3ccco3)nn12 (racemic) | > 1000 nM |
| Nc1nc(N2CCN3C[C@@H](Cn4cncn4)CC[C@H]3C2)nc2nc(-c3ccco3)nn12 (racemic) | > 500 nM |
| Nc1nc(N2CCN3C[C@@H](CN(Cc4ccncc4)Cc4ccncc4)CC[C@H]3C2)nc2nc(-c3ccco3)nn12 (racemic) | 6000 nM |
| Nc1nc(N2CCN3C[C@H](COc4ccncc4)CC[C@H]3C2)nc2nc(-c3ccco3)nn12 (racemic) | > 1000 nM |
| Nc1cc(N2CCN3[C@@H](COc4ccc5cccnc5c4)CCC[C@H]3C2)nc2nc(-c3ccco3)nn12 (racemic) | > 500 nM |

The next lines start with the values.

| Ki | SMILES |
| --- | --- |
| > 1000 nM | Nc1nc(N2CCN3C[C@H](CNc4ncccn4)CC[C@H]3C2)nc2nc(-c3ccco3)nn12 |
| > 1000 nM | Nc1nc(N2CCN3C[C@@H](CN(Cc4ccco4)Cc4ccco4)CC[C@H]3C2)nc2nc(-c3ccco3)nn12 |
| 7800 nM | Nc1nc(N2CCN3C[C@H](CN(Cc4cccnc4)Cc4cccnc4)CC[C@H]3C2)nc2nc(-c3ccco3)nn12 |
| 3500 nM | NC[C@@H]1CC[C@H]2CN(c3nc(N)n4nc(-c5ccco5)nc4n3)CCN2C1 |
| > 1000 nM | Nc1nc(N2CCN3C[C@@H](CN(Cc4ccc(F)cc4F)Cc4ccc(F)cc4F)CC[C@H]3C2)nc2nc(-c3ccco3)nn12 |
| > 1000 nM | Nc1nc(N2C[C@@H]3CCCN3C[C@@H]2Cc2ccccc2)nc2nc(-c3ccco3)nn12 |
| > 1000 nM | Nc1nc(N2CCN3C[C@@H](CN(Cc4cccnc4)Cc4cccnc4)CC[C@H]3C2)nc2nc(-c3ccco3)nn12 |
| > 1000 nM | Cc1nn(C)c(Cl)c1CN(Cc1c(C)nn(C)c1Cl)C[C@H]1CC[C@H]2CN(c3nc(N)n4nc(-c5ccco5)nc4n3)CCN2C1 |
| > 500 nM | NC[C@@H]1CC[C@H]2CN(c3cc(N)n4nc(-c5ccco5)nc4n3)CCN2C1 |
| > 500 nM | NC[C@H]1CC[C@H]2CN(c3cc(N)n4nc(-c5ccco5)nc4n3)CCN2C1 |
| > 500 nM | Nc1nc(N2CCN3C[C@@H](CNCc4cccnc4)CC[C@H]3C2)nc2nc(-c3ccco3)nn12 |
| > 500 nM | Cc1nn(C)c(Cl)c1CNC[C@H]1CC[C@H]2CN(c3nc(N)n4nc(-c5ccco5)nc4n3)CCN2C1 |

Source: ChEMBL document CHEMBL1149249 (J Med Chem, 2004)
